Source: US5580552A, “7-glycosyloxybenzopyran derivative and antiallergic agent containing the derivative as active ingredient” (priority 1994, dated 1996)

Key:
[1] = tested on: experimental asthma model (airway resistance); assay: Effect on experimental asthma model in guinea pigs (airway resistance); type: in vivo, guinea pigs (male hartley); settings: Cavia porcellus, 0.5 h; for inhibition in vivo at 50 mg/kg: po, 50 mg/kg oral (TABLE 6)
Experimental: Effect on experimental asthma model in guinea pigs
The asthma is typical allergic disease and we carried out this pharmacological test by well known experimental asthma model in guinea pigs in order to comfirm that the compounds of the present invention suppress the asthma. In the following, the method of the pharmacological test will be explained.
Method: Male hartley guinea pigs were immunized by intraperitoneal injection of saline (1ml) containing 5 mg of ovalbumine (OVA) three times at interval of one week. 2 weeks after final immunization, the animals were challenged by inhalation of 1% OVA-saline solution for 1 minute and then the airway resistance of the animals were measured for 30 minutes with PULMOS-1 (Medical Interface Project Station Inc.) after the inhalation. The compounds of the present invention (test compounds) suspended in 0.5% CMCNa were given orally at a dose of 50 mg/kg. As positive control group, Disodium Cromoglicate (DSCG), well known anti-allergic agent, in saline were injected at a dose of 20 mg/kg into the vein of the animals. As vehicle control group, only 0.5% CMCNa solution were given orally. The inhibition (%) of the airway resistance in vehicle control group was calculated according to equation 5 and the result was shown in TABLE 6. Each experimental group consisted of 5 guinea pigs. [formula]
A: Maximum airway resistance in vehicle control group
B: Maximum airway resistance in test compounds group or positive control group

[2] = tested on: homologous passive cutaneous anaphylaxis (PCA) reaction; assay: Effect on homologous passive cutaneous anaphylaxis (PCA) reaction in rats; type: in vivo, rats (male wistar); settings: Rattus norvegicus, po, 0.5 h; for inhibition in vivo at 50 mg/kg: 50 mg/kg oral, 1 hour before challenge (TABLE 2)
Experimental: Effect on homologous passive cutaneous anaphylaxis (PCA) reaction in rats.
This experimental animal model is caused by immediate type allergic reaction namely, antigen-antibody reaction. In the following, the method of this pharmacological test will be explained.
Method: Male wistar rats (9 weeks old) were intradermally administered 0.05 ml of anti-serum against dinitrophenylated ascaris (DNP-As) into two sites on the shaved dorsal skin. 48 hours later, 7-glycosyloxybenzopyran derivatives (test compounds) suspended in 0.5% sodium carboxymethylcellulose (CMCNa) were given orally at a dose of 50 mg/kg to the animals. One hour after administration of Test compounds, the animals were induced anaphylaxis by injection of saline (1 ml) dissolving 5 mg of Evans Blue and 1 mg of Trinitrophenylated ascaris (TNP-As) into the tail vein of the animals. 30 minutes after induction of anaphylaxis, animals were anesthetized by ether and killed by bleeding, and were flayed dorsal skin. The determination of extravasated dye was performed according to the method of Katayama et al. (Microbiol. Immunol., Vol.22, P 89-101, 1978). As vehicle control group, only 0.5% CMCNa solution was administered orally, and as positive control group, Tranilast suspended in 0.5% CMCNa was administered orally at a dose of 100 mg/kg to the animals with the same method as the test compounds groups. Each experimental group consisted of 5 rats. [formula]

[3] = tested on: contact dermatitis induced by picryl chloride; assay: Effect on contact dermatitis induced by picryl chloride in mice; type: in vivo; settings: for inhibition in vivo at 50 mg/kg: 50 mg/kg oral, 1 hour before and 16 hours after challenge, 24 hours after challenge
Experimental: Effect on contact dermatitis induced by picryl chloride in mice
The delayed type hypersensitization is inhibited by steroid drugs,but can not be effected by known anti-allergic agents. In the following, the method of the pharmacological test will be explained.
Method: Mice, shaved their abdominal skin on previous day, were immunized by applying 0.1 ml of acetone containing 7 mg of picryl chloride to the skin of the abdomen. 7 days after immunization, the thickness of the ear was measured with a dial thickness gauge, then mice were challenged by painting 5 μl of 1% picryl chloride olive oil solution to each side skin of left ear. 24 hours after challenge, the thickness of the left ear was measured again and the increase (%) of thickness was calculated according to equation 2. The compounds of the present invention (test compounds) suspended in 0.5% CMCNa were forcibly administered orally at a dose of 50 mg/kg at 1 hour before and 16 hours after challenge. As vehicle control group, only 0.5% CMCNa solution were administered orally, and as positive control group, Prednisolone, steroid hormone, and Tranilast were administered orally at the doses of 10 mg/kg and 100 mg/kg, respectively.
Increase (%)=(A-B)/B×100 (Equation 2)
A: thickness of the ear at 24 hours after challenge
B: thickness of the ear before challenge
Inhibition (%)=(C-D)/C×100 (equation 3)
C: The increase (%) in vehicle control group
D: The increase (%) in test compounds group or positive control group

[4] = Mus musculus, po, 24 h, read-out: Inhibition (%) against the increase of ear thickness

Structure (SMILES)	inhibition in vivo at 50 mg/kg [1]	inhibition in vivo at 50 mg/kg [2]	inhibition in vivo at 50 mg/kg [3, 4]	inhibition in vivo at 10 mg/kg [3, 4]	inhibition in vivo at 20 mg/kg ([1]; iv, positive control DSCG, 20 mg/kg into the vein (TABLE 6))	inhibition in vivo at 100 mg/kg ([2]; positive control, 100 mg/kg oral (TABLE 2))	inhibition in vivo at 100 mg/kg ([3]; Mus musculus, po, 24 h, positive control Tranilast, 100 mg/kg oral, read-out: Inhibition (%) against the increase of ear thickness)	inhibition of delayed type hypersensitization ([3]; Tranilast, 100 mg/kg oral)
CCCCCCCCCCOc1c(O)c2ccc(O[C@@H]3O[C@H](CO)[C@H](O)[C@H](O)[C@H]3O)cc2oc1=O [compound 89]	77.3%	57.8%	62.3%	–	–	–	–	–
CCCCCCOc1c(O)c(=O)oc2cc(O[C@@H]3O[C@H](CO)[C@H](O)[C@H](O)[C@H]3O)ccc12 [compound 21, 3-hydroxy-4-hexyloxy-7-(β-D-galactopyranosyloxy)-2H-1-benzopyran-2-one]	63.1%	45.2%	48.9%	–	–	–	–	–
CCC=CCCOc1c(O)c(=O)oc2cc(O[C@H]3O[C@H](CO)[C@@H](O)[C@H](O)[C@@H]3O)ccc12 [compound 138]	50.8%	42.5%	44.7%	–	–	–	–	–
C=COc1c(O)c(=O)oc2cc(O[C@@H]3O[C@H](CO)[C@@H](O)[C@H](O)[C@H]3O)ccc12 [compound 115]	53.1%	42.2%	40.2%	–	–	–	–	–
CCCCCCOc1c(O)c(=O)oc2cc(O[C@H]3O[C@H](CO)[C@@H](O)[C@H](O)[C@@H]3O)ccc12 [compound 20, 3-hydroxy-4-hexyloxy-7-(α-D-mannopyranosyloxy)-2H-1-benzopyran-2-one]	55.4%	42.3%	45.2%	–	–	–	–	–
CCCCCCCCOc1c(O)c2ccc(O[C@@H]3O[C@H](CO)[C@H](O)[C@H](O)[C@H]3O)cc2oc1=O [compound 88]	80.2%	61.5%	66.8%	–	–	–	–	–
CCCCCCCCCCOc1c(O)c2ccc(O[C@H]3O[C@H](CO)[C@@H](O)[C@H](O)[C@@H]3O)cc2oc1=O [compound 65]	49.3%	52.1%	50.3%	–	–	–	–	–
O=c1oc2cc(O[C@@H]3O[C@H](CO)[C@@H](O)[C@H](O)[C@H]3O)ccc2c(O)c1O [compound 108]	50.1%	45.3%	42.4%	–	–	–	–	–
CCCCCCCCCCCCOc1c(O)c2ccc(O[C@@H]3O[C@H](CO)[C@H](O)[C@H](O)[C@H]3O)cc2oc1=O [compound 90]	72.1%	54.3%	60.1%	–	–	–	–	–
CC(C)=CCC/C(C)=C/COc1c(O)c(=O)oc2cc(O[C@@H]3O[C@H](CO)[C@@H](O)[C@H](O)[C@H]3O)ccc12 [compound 117]	49.4%	40.3%	42.3%	–	–	–	–	–
CCCCOc1c(O)c2ccc(O[C@@H]3O[C@H](CO)[C@H](O)[C@H](O)[C@H]3O)cc2oc1=O [compound 86]	73.2%	56.4%	59.4%	–	–	–	–	–
COc1c(O)c2ccc(O[C@@H]3O[C@H](CO)[C@H](O)[C@H](O)[C@H]3O)cc2oc1=O [compound 9, 3-methoxy-4-hydroxy-7-(β-D-galactopyranosyloxy)-2H-1-benzopyran-2-one]	60.3%	54.5%	52.1%	–	–	–	–	–
CCCCCCOc1c(O)c(=O)oc2cc(O[C@@H]3O[C@H](CO)[C@@H](O)[C@H](O)[C@H]3O)ccc12 [compound 19, 3-hydroxy-4-hexyloxy-7-(β-D-glucopyranosyloxy)-2H-1-benzopyran-2-one]	65.2%	44.9%	47.1%	–	–	–	–	–
CC1CCC(Oc2c(O)c3ccc(O[C@@H]4O[C@H](CO)[C@@H](O)[C@H](O)[C@H]4O)cc3oc2=O)CC1 (some centres unmarked) [compound 43]	70.7%	57.9%	55.4%	–	–	–	–	–
CC(C)=CCC/C(C)=C/COc1c(O)c(=O)oc2cc(O[C@H]3O[C@H](CO)[C@@H](O)[C@H](O)[C@@H]3O)ccc12 [compound 139]	47.2%	41.8%	42.1%	–	–	–	–	–
O=c1oc2cc(O[C@@H]3O[C@H](CO)[C@H](O)[C@H](O)[C@H]3O)ccc2c(O)c1OCc1ccccc1 [compound 96]	58.2%	50.1%	48.9%	–	–	–	–	–
CC(C)Oc1c(O)c2ccc(O[C@@H]3O[C@H](CO)[C@@H](O)[C@H](O)[C@H]3O)cc2oc1=O [compound 42]	68.5%	56.4%	58.3%	–	–	–	–	–
CCCCCCCCOc1c(O)c2ccc(O[C@@H]3O[C@H](CO)[C@@H](O)[C@H](O)[C@H]3O)cc2oc1=O [compound 39]	77.8%	62.2%	65.1%	–	–	–	–	–
CCCCCCCCCCOc1c(O)c(=O)oc2cc(O[C@H]3O[C@H](CO)[C@@H](O)[C@H](O)[C@@H]3O)ccc12 [compound 133]	43.2%	42.3%	41.4%	–	–	–	–	–
CCC=CCCOc1c(O)c2ccc(O[C@@H]3O[C@H](CO)[C@H](O)[C@H](O)[C@H]3O)cc2oc1=O [compound 94]	73.2%	53.7%	51.2%	–	–	–	–	–
CCCCCCOc1c(OCc2ccccc2)c2ccc(O[C@@H]3O[C@H](COC(C)=O)[C@H](OC(C)=O)[C@H](OC(C)=O)[C@H]3OC(C)=O)cc2oc1=O [compound 75]	43.5%	45.5%	40.3%	–	–	–	–	–
C=COc1c(O)c(=O)oc2cc(O[C@H]3O[C@H](CO)[C@@H](O)[C@H](O)[C@@H]3O)ccc12 [compound 137]	45.4%	41.7%	43.5%	–	–	–	–	–
CCCCCCCCOc1c(O)c(=O)oc2cc(O[C@H]3O[C@H](CO)[C@@H](O)[C@H](O)[C@@H]3O)ccc12 [compound 132]	50.1%	42.9%	43.2%	–	–	–	–	–
O=c1oc2cc(O[C@H]3O[C@H](CO)[C@@H](O)[C@H](O)[C@@H]3O)ccc2c(OCc2ccccc2)c1O [compound 140]	45.1%	40.4%	40.1%	–	–	–	–	–
C[C@]12C=CC(=O)C=C1CC[C@@H]1[C@@H]2[C@@H](O)C[C@@]2(C)[C@H]1CC[C@]2(O)C(=O)CO [Prednisolone, reference compound]	–	–	–	63.7%	–	–	–	–
O=C(O)c1cc(=O)c2c(OCC(O)COc3cccc4oc(C(=O)O)cc(=O)c34)cccc2o1 [DSCG, Disodium Cromoglicate, reference compound]	–	–	–	–	51.2%	–	–	–
COc1ccc(/C=C/C(=O)Nc2ccccc2C(=O)O)cc1OC [Tranilast, reference compound]	–	–	–	–	–	54.6%	4.3%	did not inhibit delayed type hypersensitization
